One series addresses σ1R (Homo sapiens, UniProt Q99720). The series can be described thus: In vitro σ1R binding assay (radioligand displacement, NIMH PDSP). The note with it: read-out: In Vitro σ1R Affinity (Ki). The text has this:
Online Molinspiration and Osiris property explorer were used to calculate/predict drug-like molecular properties for the target compounds. These studies involved retrieving the σ1R crystal structure (5HK1) with embedded ligand (PD144418), preparation (e.g., H2O and ligand removal), and docking the target molecules via the PyRx and AutoDock Vina suite. […] Synthetically, a variety of approaches for obtaining acyl ureas were reviewed and the most feasible conditions were attempted with limited success—our goal was to obtain our compounds using the shortest and most cost-effective approach. […] We therefore slightly modified Stokes’ conditions by preparing the N-(phenoxycabonyl)benzamide intermediate from phenol and benzoyl isocynate. Coupling the intermediate with amines or amides or thioamides via simple nucleophilic displacement afforded our series of N-acyl ureas plus N-acyl thioureas (Table 1) in good yields (>64%). To confirm our pharmacological assumptions regarding these molecules behaving like PD144418, the compounds were sent to the National Institute of Mental Health’s Psychoactive Drug Screening Program and evaluated in radioligand displacement assays to determine their in vitro σ1R affinities or Ki values.
Computational (kcal/mol) versus in vitro (μM, from the National Institute of Mental Health Psychoactive Drug Screening Program or NIMH-PDSP [https://pdsp.unc.edu/pdspweb/ (accessed 28 February 2023)] σ1R binding affinity data are illustrated in Table 4.
Sigma-1 binding affinity experiments (Ki determinations) were conducted at the National Institute of Mental Health’s Psychoactive Drug Screening Program (NIMH PDSP). Sigma-1 receptor binding assay protocol details (radioligand displacement conditions, etc.) are available at https://pdsp.unc.edu/pdspweb/content/PDSP%20Protocols%20II%202013-03-28.pdf (accessed 28 February 2023).

Structures are written as SMILES.

σ1R, sequence (Q99720 whole entry, species assumed): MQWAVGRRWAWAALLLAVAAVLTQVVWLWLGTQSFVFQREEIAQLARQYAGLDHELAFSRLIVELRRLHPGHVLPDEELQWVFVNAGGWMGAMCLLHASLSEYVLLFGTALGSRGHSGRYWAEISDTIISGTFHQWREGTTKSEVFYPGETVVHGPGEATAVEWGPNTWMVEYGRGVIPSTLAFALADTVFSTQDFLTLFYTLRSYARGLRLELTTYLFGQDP

For the compound `Cc1cc(NC(=O)NC(=O)c2ccccc2)no1` [Compound 1, N-((5-Methylisoxazol-3-yl)carbamoyl)benzamide], the Ki on σ1R was > 10 µM.

As for `O=C(NC(=O)c1ccccc1)Nc1ccc2[nH]ccc2c1` [Compound 2], the melting point lay within 220 to 223 °C. For the same compound, the Ki on σ1R is > 10 µM.

The compound `O=C(NC(=O)c1ccccc1)NC(=S)c1ccccn1` [Compound 3, N-((Pyridine-2-carbonothioyl)carbamoyl)benzamide] yielded a melting point of 180 to 182 °C. For the same compound, the inhibitory constant (Ki) at σ1R was > 10 µM.

`Cc1cc2cc(NC(=O)NC(=O)c3ccccc3)ccc2[nH]1` [Compound 4, N-((2-Methyl-1H-indol-5-yl)carbamoyl)benzamide] gave a melting point of 209 to 211 °C. The Ki at σ1R is > 10 µM.

With `O=C(NC(=O)N1CCN(c2ncccn2)CC1)c1ccccc1` [Compound 5, N-Benzoyl-4-(pyrimidin-2-yl)piperazine-1-carboxamide], the melting point was in the range of 145 to 147 °C. Also, the Ki on σ1R was > 10 µM.

In turn, `O=C(NC(=O)N1CCN(c2ccncc2)CC1)c1ccccc1` [Compound 6, N-Benzoyl-4-(pyridin-4-yl)piperazine-1-carboxamide] gave a melting point of 161 to 163 °C. At σ1R, the Ki is > 10 µM.

Regarding `O=C(NC(=O)N1CCC(O)CC1)c1ccccc1` [Compound 7], the melting point was in the range of 170 to 172 °C. At σ1R, the Ki is > 10 µM.

Take `Cc1ccc(N2CCN(C(=O)NC(=O)c3ccccc3)CC2)cc1` [Compound 8, N-Benzoyl-4-(p-tolyl)piperazine-1-carboxamide]: the melting point fell in the range of 158 to 160 °C. At σ1R, the inhibition constant Ki was > 10 µM.

`CC(C)(C)OC(=O)N1CCC(NC(=O)NC(=O)c2ccccc2)CC1` [Compound 9, Tert-butyl 4-(3-benzoylureido)piperidine-1-carboxylate] gave a melting point of 164 to 166 °C. Besides, the Ki at σ1R was > 10 µM.

Compound `O=C(NC(=O)c1ccccc1)Nc1nc2ccccc2o1` [Compound 10, N-(Benzo[d]oxazol-2-ylcarbamoyl)benzamide] displayed a melting point of 180 to 182 °C. The Ki on σ1R was found to be 2.18 µM.

As for `Cc1c(C)c2c(c(C)c1O)CCC(C)(C(=O)NC(=O)NC(=O)c1ccccc1)O2` (stereo not shown) [Compound 11, N-(Benzoylcarbamoyl)-6-hydroxy-2,5,7,8-tetramethylchromane-2-carboxamide], the melting point lay in the range of 155 to 157 °C. Also, the Ki at σ1R was > 10 µM.

In turn, `COc1cc(C(=S)NC(=O)NC(=O)c2ccccc2)ccc1O` [Compound 12, N-((4-Hydroxy-3-methoxyphenylcarbonothioyl)carbamoyl) benzamide] displayed a melting point of 176 to 177 °C. For the same compound, at σ1R, the Ki was found to be 9.54 µM.

As for `Cc1cc(C)nc(NC(=O)NC(=O)c2ccccc2)n1` [Compound 13, N-((4,6-Dimethylpyrimidin-2-yl)carbamoyl)benzamide], the melting point is 183 to 185 °C. Moreover, the Ki on σ1R was > 10 µM.

For `O=C(NC(=O)c1ccccc1)Nc1cnc2ccccc2c1` [Compound 14, N-(Quinolin-3-ylcarbamoyl)benzamide], the melting point was in the range of 233 to 236 °C. In addition, the Ki at σ1R is > 10 µM.

In turn, `O=C(NC(=O)c1ccccc1)Nc1cc2ccccc2cn1` [Compound 15, N-(Isoquinolin-3-ylcarbamoyl)benzamide] gave a melting point of 237 to 238 °C. Besides, the Ki on σ1R is > 10 µM.

In the case of `O=C(NC(=S)Nc1cc2ccccc2cn1)c1ccccc1` [Compound 16, N-(Isoquinolin-3-ylcarbamothioyl)benzamide], the melting point lay within 162 to 165 °C. For the same compound, the inhibition constant (Ki) on σ1R is > 10 µM.

By Ki is commonly meant the dissociation constant of the complex between target and ligand, obtained from inhibition or displacement. What is called melting point is the temperature, or range, at which the solid turns liquid.

For the origin of these results see article PMC10005056, “Design and Synthesis of New Acyl Urea Analogs as Potential σ1R Ligands” (Molecules, 2023).
